Laboratory results from patent US9012492B2, “Apocynin-lipoic acid conjugates and uses thereof” (priority 2011, dated 2015).
Read-outs that look alike come from different tables or passages of the source. Values belong to the molecule of their own block, whether it stands above or below them.

Key:
[1] = Stability in sodium phosphate buffer (HPLC); assay type: physicochemical; conditions: for Half life: buffer; for half-life: buffer without microsomes and without NADPH
Protocol: The stability of the compound of Formula (Ia) in a sodium phosphate buffer (50 mM, pH 7.4) was evaluated using HPLC. […] Area counts of apocynin and lipoid acid were found in 0 minute samples and were generally constant until the last time point measured (see: FIGS. 11-12 and Tables 5-6).

[2] = test system: rat liver microsomes; experiment: Metabolic stability using rat liver microsomes; assay type: in vitro ADME; set-up: half-life: dose or concentration left out as unconfirmed
Excerpt: (§1) Table 7 summarizes the experimental conditions used in the studies of the metabolic stability of the compound of Formula (Ia) using rat liver microsomes. Table 8 and FIG. 13 show the results from the studies of the metabolic stability of the compound of Formula (Ia) using rat liver microsomes. [table]

[3] = test system: dog liver microsomes (DLM); experiment: Metabolic stability using dog liver microsomes; assay type: in vitro ADME
Excerpt: (§2) Table 9 summarizes the experimental conditions used in the studies of the metabolic stability of the compound of Formula (Ia) using dog liver microsomes and human liver microsomes.

[4] = test system: human liver microsomes (HLM); experiment: Metabolic stability using human liver microsomes; assay type: in vitro ADME
Excerpt: as §2

[5] = test system: Sprague-Dawley rats; conditions: previous studies, cited from earlier work
[6] = test system: markers of oxidative stress (SOD1, SOD2, GSH, GSSG, H2O2, HNE-His adducts, DNA fragmentation); conditions: administered 30 min prior to I/R; same model, previously demonstrated; cited from earlier work
[7] = test system: N27 neuronal cells; experiment: DNA fragmentation ELISA after hydrogen peroxide exposure of N27 neuronal cells; assay type: cell-based; conditions: for DNA cell fragmentation: n = 4
Protocol: Specifically, the effects of (Ia) on oxidative stress in N27 neuronal cells, a dopaminergic cell line were studied. […]
The cells were then lysed, and DNA fragmentation was determined by ELISA assay.

[8] = Metabolic stability using rat liver microsomes; assay type: in vitro ADME; set-up: half-life: dose or concentration left out as unconfirmed; conditions: rat, rat liver microsomes, pH 7.4
Excerpt: as §1

[9] = Metabolic stability using dog liver microsomes; assay type: in vitro ADME; conditions: dog, dog liver microsomes, pH 7.4; DLM control (without NADPH)
Excerpt: as §2

[10] = Metabolic stability using human liver microsomes; assay type: in vitro ADME; conditions: human
Excerpt: as §2

[11] = matrix buffer (no microsomes, no NADPH), DLM/HLM study
[12] = matrix buffer (no microsomes, no NADPH), rat liver microsome study

- CLintr (mL/min/g liver) [1]: 0.9 mL/min/g liver
- Half life [1]: >30 min
- % Metabolism in 30 minutes [1, 11]: 0%
- % Metabolism in 30 minutes [1, 12]: 0%
- CLintr (mL/min/g liver) ([1]; rat): <0.6 mL/min/g liver
- Half life ([1]; rat): >30 min
- CLintr (mL/min/g liver) ([2]; rat, microsomes): <0.6 mL/min/g liver
- Half life ([2]; rat, microsomes): >30 min
- Half life ([3]; dog, microsomes): >30 min
- % Metabolism in 30 minutes [4]: 0%
- CLintr (mL/min/g liver) ([4]; human, microsomes): <0.6 mL/min/g liver
- Half life ([4]; human, microsomes): >30 min
Molecule: 1,2-dithiolane-2-pentanoic acid [lipoic acid]
- neuroprotection when administered just prior to the beginning of reperfusion ([5]; 5 mg/kg): did not result in significant neuroprotection
- most effective dose ([5]; I/R model): 5 mg/kg
- SOD2 activity [6]: increased SOD2 activity

- half-life [1, 11]: > 30 min
- half-life [1, 12]: > 30 min
- % Metabolism in 30 minutes [1, 11]: 1%
- CLintr (mL/min/g liver) [1, 11]: <0.6 mL/min/g liver
- % Metabolism in 30 minutes [1, 12]: 0%
- CLintr (mL/min/g liver) [1, 12]: <0.6 mL/min/g liver
- half-life at 0.5 µM ([8]; RLM, control (without NADPH)): > 30 min
- % Metabolism in 30 minutes ([2]; RLM, control (without NADPH)): 2%
- CLintr (mL/min/g liver) ([2]; RLM, control (without NADPH)): <0.6 mL/min/g liver
- % Metabolism in 30 minutes ([2]; RLM, reaction (with NADPH)): 0%
- CLintr (mL/min/g liver) ([2]; RLM, reaction (with NADPH)): <0.6 mL/min/g liver
- Half life ([2]; RLM, reaction (with NADPH)): >30 min
- half-life at 0.5 µM [9]: > 30 min
- % Metabolism in 30 minutes ([3]; DLM control (without NADPH)): 0%
- CLintr (mL/min/g liver) ([3]; DLM control (without NADPH)): <0.6 mL/min/g liver
- % Metabolism in 30 minutes ([3]; DLM reaction (with NADPH)): 30%
- CLintr (mL/min/g liver) ([3]; DLM reaction (with NADPH)): 1.6 mL/min/g liver
- Half life ([3]; DLM reaction (with NADPH)): >30 min
- half-life ([10]; human liver microsomes, HLM control (without NADPH)): > 30 min
- % Metabolism in 30 minutes ([4]; HLM control (without NADPH)): 0%
- CLintr (mL/min/g liver) ([4]; HLM control (without NADPH)): <0.6 mL/min/g liver
- % Metabolism in 30 minutes ([4]; HLM reaction (with NADPH)): 0%
- CLintr (mL/min/g liver) ([4]; HLM reaction (with NADPH)): <0.6 mL/min/g liver
- Half life ([4]; HLM reaction (with NADPH)): >30 min
Molecule: COc1cc(C(C)=O)ccc1O [Apocynin, 4-hydroxy-3-methoxyacetophenone]
- DNA fragmentation induced by hydrogen peroxide reduced by ([7]; pretreatment 100 μM): 41%
- DNA cell fragmentation ([7]; pretreatment 100 μM, then hydrogen peroxide (1 mM)): 244 ± 32 percentage of control
- SOD2 activity [6]: ineffective

Molecule: c1ccc2c(c1)[I+]c1ccccc1-2 [DPI, diphenyleneiodonium]
- DNA fragmentation induced by hydrogen peroxide reduced by ([7]; pretreatment 10 μM): 48%
- DNA cell fragmentation ([7]; pretreatment 10 μM, then hydrogen peroxide (1 mM)): 208 ± 38 percentage of control

Molecule: OO [Hydrogen Peroxide, hydrogen peroxide]
- DNA cell fragmentation ([7]; hydrogen peroxide alone (6 hr)): 428 ± 52 percentage of control

Molecule: O=C(O)Cc1ccccc1Nc1c(Cl)cccc1Cl [diclofenac]
- half-life ([8]; matrix RLM (positive control)): 11 min
- % Metabolism in 30 minutes ([2]; matrix RLM (positive control)): 84%
- CLintr (mL/min/g liver) ([2]; matrix RLM (positive control)): 6.4 mL/min/g liver
- half-life ([10]; microsomes, matrix HLM (positive control)): 9 min
- % Metabolism in 30 minutes ([4]; matrix HLM (positive control)): 92%
- CLintr (mL/min/g liver) ([4]; matrix HLM (positive control)): 8.4 mL/min/g liver
